Some test systems named below: NCI-H226 lung; IGROV1 ovarian; UACC-62 melanoma; UO-31 renal; OVCAR-8 ovarian; HCC-2998 colon; DU-145 prostate; PC-3 prostate; T-47D breast; 786-0 renal.
What all share (assay): inhibition of tumour cell growth, NCI panel, 48 h

Molecules are shown by their SMILES.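 Five compound concentrations were applied to cells in 96-well plates for 48 hours; endpoints were derived by simple linear interpolation of the resulting dose-response curve. Abbreviation: GI50, concentration required for 50% inhibition of growth. TGI is the concentration that stops growth completely.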

For the compound `Cn1c2ccccc2c2nnc(N/N=C/c3ccccn3)nc21`, the GI50 with NCI-H226 lung was 0.337 µM; in the test with IGROV1 ovarian, 0.44 µM; in the test on UACC-62 melanoma, 0.3 µM; in the test with UO-31 renal, 0.361 µM; in the test on OVCAR-8 ovarian, 0.426 µM; in the test on HCC-2998 colon it was 0.529 µM. The GI50 in the test with DU-145 prostate is 0.377 µM; in the test with PC-3 prostate it was 1.44 µM; in the test with T-47D breast, 0.392 µM; with 786-0 renal, 0.256 µM. Further, the TGI was 5.36 µM in the test with NCI-H226 lung; over 23.6 µM in the test on IGROV1 ovarian; 1.03 µM in the test on UACC-62 melanoma; 5.3 µM in the test with UO-31 renal; over 84.2 µM with OVCAR-8 ovarian; over 63.8 µM with HCC-2998 colon. Also, the TGI in the test with DU-145 prostate was over 27.3 µM; with PC-3 prostate, over 100 µM; in the test on T-47D breast it was 10.8 µM; with 786-0 renal it was 0.758 µM.
`CNC1NC(=O)c2ccccc2N1Cc1ccc(F)cc1` (stereo not given): the TGI in the test on NCI-H226 lung is over 100 µM; in the test on IGROV1 ovarian it was over 100 µM; in the test on UACC-62 melanoma it was over 100 µM; in the test on UO-31 renal, 26 µM; in the test on OVCAR-8 ovarian it was over 100 µM; with HCC-2998 colon, over 100 µM. For the same compound, the TGI in the test with DU-145 prostate, in the test with PC-3 prostate, with T-47D breast and in the test with 786-0 renal was over 100 µM in each case.
With `Cc1nn2c(/C=C3/C(=O)Nc4ccc(Cl)cc43)c(-c3ccccc3)nc2s1`, the GI50 was 1.51 µM in the test on NCI-H226 lung; 1.51 µM with IGROV1 ovarian; 3.8 µM in the test with UACC-62 melanoma; 1.07 µM in the test with UO-31 renal; 2.19 µM with OVCAR-8 ovarian; 9.59 µM in the test with HCC-2998 colon. Further, the GI50 was 2.69 µM in the test on DU-145 prostate, 1.79 µM in the test with PC-3 prostate, 1.71 µM in the test on T-47D breast and 2.37 µM in the test with 786-0 renal. Moreover, the TGI with NCI-H226 lung was 4.6 µM; in the test on IGROV1 ovarian, 10.2 µM; in the test on UACC-62 melanoma, 18.5 µM; in the test on UO-31 renal it was 13.2 µM; in the test with OVCAR-8 ovarian, 5.76 µM; in the test with HCC-2998 colon, 37 µM. Besides, the TGI was 7.2 µM in the test on DU-145 prostate, 5.37 µM in the test with PC-3 prostate, 11.5 µM in the test with T-47D breast and 5.8 µM with 786-0 renal.
`Cc1cc(N/N=C/c2nc(-c3ccccc3)oc2C)c2cc(Cl)ccc2n1`: the GI50 was 2.38 µM in the test with NCI-H226 lung; 1.68 µM with IGROV1 ovarian; 1.7 µM in the test with UACC-62 melanoma; 1.61 µM in the test with UO-31 renal; 2.04 µM in the test on OVCAR-8 ovarian; 1.73 µM in the test with HCC-2998 colon. Moreover, the GI50 with DU-145 prostate was 2.15 µM; in the test with PC-3 prostate, 1.8 µM; in the test with T-47D breast it was 2.02 µM; in the test with 786-0 renal, 1.64 µM. Moreover, the TGI amounted to 6.88 µM with NCI-H226 lung; 3.32 µM in the test with IGROV1 ovarian; 3.36 µM in the test on UACC-62 melanoma; 3.07 µM with UO-31 renal; 4.4 µM in the test with OVCAR-8 ovarian; 3.23 µM in the test with HCC-2998 colon. Moreover, the TGI was found to be 4.49 µM in the test with DU-145 prostate, 3.55 µM in the test with PC-3 prostate, 4.22 µM in the test with T-47D breast and 3.38 µM with 786-0 renal.
On to `O=C(Nc1ccc(Nc2ccncc2)cc1)c1ccc(Nc2ccnc3ccc([N+](=O)[O-])cc23)cc1`, for which the GI50 in the test with NCI-H226 lung is over 100 µM; in the test on UACC-62 melanoma it was 68.1 µM; in the test on OVCAR-8 ovarian, over 100 µM; in the test on HCC-2998 colon, over 100 µM; in the test on DU-145 prostate, over 100 µM; in the test with PC-3 prostate, over 100 µM. Moreover, the GI50 in the test with T-47D breast and with 786-0 renal was over 100 µM in each case. Moreover, the TGI with NCI-H226 lung, with UACC-62 melanoma, in the test with OVCAR-8 ovarian, in the test with HCC-2998 colon, in the test with DU-145 prostate and in the test with PC-3 prostate was over 100 µM each time. The TGI with T-47D breast and with 786-0 renal was over 100 µM in each case.
Turning to `Cc1ccc2c(=O)[nH]sc2c1`, the TGI is 45.5 µM in the test on NCI-H226 lung; 35.3 µM in the test on IGROV1 ovarian; 41.2 µM in the test on UACC-62 melanoma; 33.2 µM in the test with OVCAR-8 ovarian; 36.9 µM in the test on HCC-2998 colon; over 100 µM in the test with DU-145 prostate. The TGI came to 29.1 µM in the test with PC-3 prostate, 41.8 µM in the test with T-47D breast and 15.4 µM with 786-0 renal.
As for `Cn1c(=O)c2[nH]c(COCc3nc4c([nH]3)c(=O)n(C)c(=O)n4C)nc2n(C)c1=O`, the TGI with NCI-H226 lung, in the test on IGROV1 ovarian, in the test with UACC-62 melanoma, with UO-31 renal, with OVCAR-8 ovarian and in the test with DU-145 prostate was over 100 µM in each case. Besides, the TGI in the test on PC-3 prostate, in the test on T-47D breast and in the test on 786-0 renal was over 100 µM throughout.
Consider `NC(=NC1CCCCCC1)c1ccc(N2CCN(c3ccc(C(N)=NC4CCCCCC4)cc3)CC2)cc1`, for which the GI50 in the test on NCI-H226 lung was 7.64 µM; in the test on UACC-62 melanoma, 7.8 µM; with UO-31 renal, 33.7 µM; in the test with OVCAR-8 ovarian it was 9 µM; in the test on HCC-2998 colon, 8.9 µM; with DU-145 prostate, 7.59 µM. Also, the GI50 in the test on PC-3 prostate is 12.1 µM; with T-47D breast, 15.2 µM; in the test with 786-0 renal, 10.7 µM. Moreover, the TGI with NCI-H226 lung was 28.9 µM; with UACC-62 melanoma, 17.2 µM; in the test on UO-31 renal, over 50 µM; in the test on OVCAR-8 ovarian, over 50 µM; in the test with HCC-2998 colon, over 50 µM; in the test on DU-145 prostate, over 50 µM. Moreover, the TGI is over 50 µM in the test with PC-3 prostate, over 50 µM with T-47D breast and 43.9 µM in the test with 786-0 renal.
Consider `Cc1nc(NC(=S)Nc2ccc(F)cc2)sc1C(=O)NNC(=S)Nc1ccc(F)cc1`, for which the GI50 is 14.1 µM in the test with NCI-H226 lung; 3.01 µM in the test with UACC-62 melanoma; 5.28 µM with UO-31 renal; 16 µM in the test on OVCAR-8 ovarian; 6.6 µM in the test on HCC-2998 colon; 5.53 µM with DU-145 prostate. Besides, the GI50 in the test with PC-3 prostate is 4.38 µM; in the test with T-47D breast it was 2.59 µM; in the test on 786-0 renal, 21.9 µM. In addition, the TGI with NCI-H226 lung was 57.8 µM; in the test on UACC-62 melanoma it was 18.9 µM; with UO-31 renal, 21 µM; in the test with OVCAR-8 ovarian, over 100 µM; in the test with HCC-2998 colon it was 22.5 µM; in the test with DU-145 prostate it was 22.3 µM. In addition, the TGI worked out at 80.7 µM with PC-3 prostate, 20.7 µM in the test with T-47D breast and 89.1 µM in the test with 786-0 renal.
